Laboratory results as given in ChEMBL document CHEMBL3227941, “3-Substituted adenines. In vitro enzyme inhibition and antiviral activity” (J Med Chem, 1979).

What was measured:
Assay type in all cases: functional
Details in all cases: route intraperitoneal
Rattus norvegicus [1] = assay: Inhibition of dopamine-beta-hydroxylase in Wistar rat assessed as reduction of norepinephrine level in heart at 50 mg/kg, ip after 3 hrs (reference value: 0.55 +/- 0.04 ug/g)
Rattus norvegicus [2] = assay: Inhibition of dopamine-beta-hydroxylase in Wistar rat assessed as reduction of adrenal catecholamine level at 50 mg/kg, ip after 24 hrs assessed per adrenal pair (reference value: 10.6 +/- 0.7 ug)
Rattus norvegicus [3] = assay: Inhibition of dopamine-beta-hydroxylase in Wistar rat assessed as reduction of norepinephrine level in brain at 50 mg/kg, ip after 6 hrs (reference value: 0.67 +/- 0.02 ug/g)
Rattus norvegicus [4] = assay: Inhibition of dopamine-beta-hydroxylase in Wistar rat assessed as reduction of norepinephrine level in heart at 50 mg/kg, ip after 6 hrs (reference value: 0.55 +/- 0.04 ug/g)
Rattus norvegicus [5] = assay: Inhibition of dopamine-beta-hydroxylase in Wistar rat assessed as reduction of adrenal catecholamine level at 50 mg/kg, ip after 3 hrs assessed per adrenal pair (reference value: 10.6 +/- 0.7 ug)
Rattus norvegicus [6] = assay: Inhibition of dopamine-beta-hydroxylase in Wistar rat assessed as reduction of norepinephrine level in brain at 50 mg/kg, ip after 3 hrs (reference value: 0.67 +/- 0.02 ug/g)
Rattus norvegicus [7] = assay: Inhibition of dopamine-beta-hydroxylase in Wistar rat assessed as reduction of norepinephrine level in heart at 50 mg/kg, ip after 24 hrs (reference value: 0.55 +/- 0.04 ug/g)
Rattus norvegicus [8] = assay: Inhibition of dopamine-beta-hydroxylase in Wistar rat assessed as reduction of adrenal catecholamine level at 50 mg/kg, ip after 6 hrs assessed per adrenal pair (reference value: 10.6 +/- 0.7 ug)
Rattus norvegicus [9] = assay: Inhibition of dopamine-beta-hydroxylase in Wistar rat assessed as reduction of norepinephrine level in brain at 50 mg/kg, ip after 24 hrs (reference value: 0.67 +/- 0.02 ug/g)

With `Br.CCCCCn1cnc(N)c2ncnc1-2.Cl` the Activity (Rattus norvegicus [1]) was 0.59 µg/g, the Activity (Rattus norvegicus [2]) was 11.3 µg and the Activity (Rattus norvegicus [3]) was 0.62 µg/g. It also gave an Activity (Rattus norvegicus [4]) of 0.57 µg/g, an Activity (Rattus norvegicus [5]) of 14.1 µg and an Activity (Rattus norvegicus [6]) of 0.65 µg/g. It also gave an Activity (Rattus norvegicus [7]) of 0.56 µg/g, an Activity (Rattus norvegicus [8]) of 12.1 µg and an Activity (Rattus norvegicus [9]) of 0.62 µg/g.
